Measurements as given in PubChem BioAssay AID248 (DTP/NCI, 2004).
“And” between values parts separate entries of the source, which are not always exact repeats. Equal entries are not always repeated. Toxic doses and inconclusive results are not listed.

System: L1210 leukemia ip in BDF1 mice, survival T/C
Test: NCI In Vivo Anticancer Drug Screen. Data for tumor model L1210 Leukemia (intraperitoneal) in B6D2F1 (BDF1) mice
Settings: endpoint: mean survival time, higher = longer survival
Method in brief: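 Read-out is survival time, reported as the treated-group measurement over the vehicle-control measurement.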

In the case of `OCCN1CCN(CCCN2c3ccccc3Sc3ccc(C(F)(F)F)cc32)CC1`, the T/C (dose: 0.09 mg/kg/injection, schedule: Q01DX009 (ip), vehicle: Klucel (hydroxypropylcellulose) (HPC)) is reported as 109 % of control, the T/C (dose: 0.12 mg/kg/injection, schedule: Q01DX009 (ip), vehicle: acetone) is reported as 107 % of control and the T/C (dose: 0.19 mg/kg/injection, schedule: Q01DX009 (ip), vehicle: Klucel (hydroxypropylcellulose) (HPC)) is reported as 97 % of control. The T/C (dose: 0.25 mg/kg/injection, schedule: Q01DX009 (ip), vehicle: acetone) was 106 % of control, the T/C (dose: 0.39 mg/kg/injection, schedule: Q01DX009 (ip), vehicle: Klucel (hydroxypropylcellulose) (HPC)) was 120 % of control and the T/C (dose: 0.39 mg/kg/injection, schedule: Q01DX009 (ip), vehicle: saline) was 97 % of control. The T/C (dose: 0.39 mg/kg/injection, schedule: Q04DX003 (ip), vehicle: saline) was 101 % of control, the T/C (dose: 0.5 mg/kg/injection, schedule: Q01DX009 (ip), vehicle: acetone) was 112 % of control and the T/C (dose: 0.58 mg/kg/injection, schedule: Q01DX009 (ip), vehicle: saline) was 111 % of control. For the same compound, the T/C (dose: 0.78 mg/kg/injection, schedule: Q01DX009 (ip), vehicle: Klucel (hydroxypropylcellulose) (HPC)) was 101 % of control, the T/C (dose: 0.78 mg/kg/injection, schedule: Q01DX009 (ip), vehicle: saline) was 108 % of control and the T/C (dose: 0.78 mg/kg/injection, schedule: Q04DX003 (ip), vehicle: saline) was 97 % of control and 108 % of control. For the same compound, the T/C (dose: 1.0 mg/kg/injection, schedule: Q01DX009 (ip), vehicle: acetone) was 120 % of control, the T/C (dose: 1.17 mg/kg/injection, schedule: Q01DX009 (ip), vehicle: saline) was 108 % of control and the T/C (dose: 1.25 mg/kg/injection, schedule: Q01DX009 (ip), vehicle: saline) was 98 % of control. For the same compound, the T/C (dose: 1.56 mg/kg/injection, schedule: Q01DX009 (ip), vehicle: Klucel (hydroxypropylcellulose) (HPC)) was 92 % of control, the T/C (dose: 1.56 mg/kg/injection, schedule: Q01DX009 (ip), vehicle: saline) was 87 % of control and the T/C (dose: 1.56 mg/kg/injection, schedule: Q04DX003 (ip), vehicle: saline) was 97 % of control and 108 % of control. For the same compound, the T/C (dose: 2.34 mg/kg/injection, schedule: Q01DX009 (ip), vehicle: saline) was 97 % of control, the T/C (dose: 3.12 mg/kg/injection, schedule: Q04DX003 (ip), vehicle: saline) was 102 % of control and 101 % of control and the T/C (dose: 4.68 mg/kg/injection, schedule: Q04DX003 (ip), vehicle: Klucel (hydroxypropylcellulose) (HPC)) was 92 % of control. The T/C (dose: 5.0 mg/kg/injection, schedule: Q01DX009 (ip), vehicle: saline) was 94 % of control and 88 % of control, the T/C (dose: 6.25 mg/kg/injection, schedule: Q04DX003 (ip), vehicle: saline) was 100 % of control and 114 % of control and 112 % of control and the T/C (dose: 6.6 mg/kg/injection, schedule: Q04DX003 (ip), vehicle: saline) was 106 % of control. The T/C (dose: 9.37 mg/kg/injection, schedule: Q04DX003 (ip), vehicle: Klucel (hydroxypropylcellulose) (HPC)) was 107 % of control, the T/C (dose: 10.0 mg/kg/injection, schedule: Q04DX003 (ip), vehicle: saline) was 117 % of control and the T/C (dose: 12.5 mg/kg/injection, schedule: Q04DX003 (ip), vehicle: saline) was 107 % of control and 116 % of control. For the same compound, the T/C (dose: 15.0 mg/kg/injection, schedule: Q04DX003 (ip), vehicle: saline) was 117 % of control and the T/C (dose: 50.0 mg/kg/injection, schedule: Q04DX003 (ip), vehicle: saline) was 164 % of control.

In the case of `C=CCCC(=O)OC(C)(C)C`, the T/C (dose: 25.0 mg/kg/injection, schedule: Q01DX009 (ip), vehicle: water) is reported as 96 % of control, the T/C (dose: 50.0 mg/kg/injection, schedule: Q01DX009 (ip), vehicle: water) is reported as 96 % of control and the T/C (dose: 100.0 mg/kg/injection, schedule: Q01DX009 (ip), vehicle: water) is reported as 98 % of control. The T/C (dose: 200.0 mg/kg/injection, schedule: Q01DX009 (ip), vehicle: water) was 97 % of control.

For `O=S1(=O)CC2(C1)OCCO2`, the T/C (dose: 100.0 mg/kg/injection, schedule: Q04DX002 (ip), vehicle: Klucel (hydroxypropylcellulose) (HPC)) was 94 % of control and the T/C (dose: 200.0 mg/kg/injection, schedule: Q04DX002 (ip), vehicle: Klucel (hydroxypropylcellulose) (HPC)) was 94 % of control.

`COc1ccc(OC(=O)OCc2ccccc2)cc1` was tested, and the T/C (dose: 100.0 mg/kg/injection, schedule: Q04DX003 (ip), vehicle: Klucel (hydroxypropylcellulose) (HPC)) was 101 % of control, the T/C (dose: 200.0 mg/kg/injection, schedule: Q04DX003 (ip), vehicle: Klucel (hydroxypropylcellulose) (HPC)) was 101 % of control and the T/C (dose: 400.0 mg/kg/injection, schedule: Q04DX003 (ip), vehicle: Klucel (hydroxypropylcellulose) (HPC)) was 109 % of control.

With `CC(C)(CO)CO` the T/C (dose: 25.0 mg/kg/injection, schedule: Q01DX009 (ip), vehicle: saline) was 97 % of control, the T/C (dose: 25.0 mg/kg/injection, schedule: Q04DX002 (ip), vehicle: saline) was 113 % of control and the T/C (dose: 50.0 mg/kg/injection, schedule: Q01DX009 (ip), vehicle: saline) was 108 % of control. For the same compound, the T/C (dose: 50.0 mg/kg/injection, schedule: Q04DX002 (ip), vehicle: saline) was 102 % of control, the T/C (dose: 100.0 mg/kg/injection, schedule: Q01DX009 (ip), vehicle: saline) was 105 % of control and the T/C (dose: 100.0 mg/kg/injection, schedule: Q04DX002 (ip), vehicle: saline) was 102 % of control and 103 % of control.
